Molecular target: Somatostatin receptor
Test: Compound was tested for its potency to displace 3-[125I]- - Tyr11-SRIF-14 from somatostatin receptor on membranes of rat cerebral cortex
Format: tissue-based

Row | Compound | IC50
1 | NCCCCCCN1CC2[C@@H](OCc3ccccc3)[C@H](OCc3ccccc3)[C@H](C1)N2CCc1c[nH]c2ccccc12 | 12 µM
2 | NCCCCCCN1CC2[C@@H](OCc3ccccc3)[C@H](OCc3ccccc3)C1CN2CCc1c[nH]c2ccccc12 (stereo partly specified) | 15 µM

Other lines, results leading:

Row | IC50 | Compound
3 | 14 µM | NCCCCCCNC[C@H]1[C@@H](OCc2ccccc2)C(OCc2ccccc2)[C@H](CO)N1CCc1c[nH]c2ccccc12 (stereo partly specified)
4 | 12 µM | NCCCCCCNC[C@H]1C(OCc2ccccc2)[C@H](OCc2ccccc2)[C@H](O)CN1CCc1c[nH]c2ccccc12 (stereo partly specified)
5 | 11 µM | NCCCCCCN[C@H]1CN(CCc2c[nH]c3ccccc23)[C@@H](CO)C(OCc2ccccc2)[C@@H]1OCc1ccccc1 (stereo partly specified)
6 | 10 µM | NCCCCCCNC[C@@H]1CN(CCc2c[nH]c3ccccc23)C[C@@H](O)[C@@H](OCc2ccccc2)[C@@H]1OCc1ccccc1
